Data on 88 compounds can be found in a melting point compilation (Tetko et al.; mined from patent text by program, amines drawn as free bases though some values may be those of a salt).

Structures are written as SMILES.

Consider `CN1C2=C(C(=O)OC2)C(c2ccncc2)c2cc3c(cc21)OCO3` (stereo not drawn), for which the melting point (in general, the temperature, or range, at which the solid turns liquid) was determined as 255 °C.

`Brc1cccc(OCc2ccc3ccccc3n2)c1`: the melting point was in the range of 79 to 81 °C.

Compound `O=C1c2ccccc2C(=O)N1CCOCCOCCOCCOCCOCCN1C(=O)c2ccccc2C1=O` gave a melting point of 124 to 126 °C.

In turn, `COc1cccc2c1C(=O)N(CC(=O)N1c3ccccc3N(Cc3ccccc3)C(=O)[C@H]3CCC[C@H]31)C2=O` (relative stereo) gave a melting point of 247 to 248 °C.

The compound `Cc1nnc(-c2sc(N3CCN(Cc4ccccc4)C3=O)nc2C)[nH]1` came in with a melting point of 284 to 287 °C.

Compound `COC(=O)C1CCCCc2c(-c3ccc(Cl)cc3)noc2C1` (stereo not drawn) yielded a melting point of 65 to 69 °C.

Compound `O=C(O)CCc1cn(Cc2ccc(OCc3ccccn3)cc2)cc1-c1ccccc1` came in with a melting point of 109 to 110 °C.

On to `CC1(C)OC(=O)Nc2ccc(-c3ccc(CC#N)c(F)c3)cc21`, for which the melting point was 253 to 256 °C.

For the compound `CC(=O)Nc1ccc(Oc2c(NCc3ccco3)cc(C(=O)O)cc2S(=O)(=O)NC(C)=O)cc1`, the melting point came out at 250 °C.

Turning to `N#Cc1cc(C(=O)NNC(=O)c2occc2-c2ccncc2)ccc1O`, the melting point came to 280 °C.

`Oc1ccc(Nc2nc(NCc3ccco3)nc(N3CCOCC3)n2)cc1` yielded a melting point of 163 to 165 °C.

In the case of `COC(=O)C(=O)c1ccc(OCCOc2ccc3c(c2)CCCC3)cc1`, the melting point lay in the range of 95 to 99 °C.

As for `CC(=O)NCC1CC(c2ccc(N3CCOCC3)c(F)c2)=NO1` (single isomer, unassigned; (-)), the melting point lay in the range of 179 to 180 °C.

Turning to `CCc1ccc(Nc2nc3cc(NC(=O)c4cccc(CCl)c4)ccc3o2)cc1`, the melting point lay within 194 to 195 °C.

`COc1ccccc1OCC(O)CN1CCCC(Cn2c(=O)[nH]c3ccc(Cl)cc32)C1` (stereo not drawn) returned a melting point of 167 °C.

`COC(=O)Nc1cccc(C(=O)OC)c1NCc1ccc(-c2ccccc2C#N)cc1` returned a melting point of 113 to 115 °C.

With `CCOC(=O)Nc1nc(=O)n(CC2CC2)cc1F`, the melting point is 90 to 92 °C.

The compound `CN1CCN(CCCNC(=O)CN2CCCC2=O)CC1` showed a melting point of 93 °C.

On to `CCCc1nc(I)c(C=O)[nH]1`, for which the melting point was in the range of 141 to 142 °C.

With `COc1ccc(C)cc1-c1cc(F)cc2c1OC(CN)C2` (stereo not drawn), the melting point fell in the range of 110 to 111 °C.

The compound `Cc1cccc(NC(=O)NCC(=O)N(c2ccccc2)C(C(=O)OC(C)(C)C)c2cccc(Br)c2)c1` (racemic) returned a melting point of 103 °C.

As to `CN(C)Cc1cc(-c2ccccc2)c2c(n1)OCCN(Cc1cc(C(F)(F)F)cc(C(F)(F)F)c1)C2=O`, the melting point was 186 to 188 °C.

`CCc1cc2c(s1)-n1c(C3CCCCC3)nnc1C(N)N=C2c1ccccc1Cl` (stereo not drawn) showed a melting point of 175 to 176 °C.

Turning to `CCOP(=O)(CCNCc1c(N)c(=O)c1=O)OCC`, the melting point was in the range of 130 to 132 °C.

`CCCCc1c(C(=O)O)cc(Cl)cc1[N+](=O)[O-]` gave a melting point of 218 to 220 °C.

The compound `CN1CC(Cn2cnnn2)CC2c3cccc4[nH]cc(c34)CC21` (stereo not drawn) registered a melting point of 206 to 209 °C.

Regarding `CCCCCSCCSCCSCCCCC`, the melting point was below 50 °C.

With `CC(C)(C)OC(=O)CN(C(=O)CNC(=O)Nc1cccc(-c2nnn[nH]2)c1)c1ccccc1C(=O)c1ccccc1`, the melting point is 163 to 175 °C.

`COc1ccc(-c2cc(S(=O)(=O)c3ccc(N)cc3)cc(N3CCCC3)n2)cc1` yielded a melting point of 227 to 229 °C.

`O=c1cc(-c2ccc(Br)cc2)oc2ccccc12` displayed a melting point of 177 to 179 °C.

In turn, `Nc1nc(NCCN2CCC(Nc3nc4ccccc4n3Cc3ccc(F)cc3)CC2)ccc1[N+](=O)[O-]` displayed a melting point of 206 °C.

For `CC(C)Cn1c(=O)n(C)c(=O)c2c(-c3ccsc3)c(Cc3ccccc3C(F)(F)F)sc21`, the melting point fell in the range of 113 to 114 °C.

Compound `COc1cc(-c2ccc(C#N)cc2)oc1-c1ccc(C#N)cc1` showed a melting point of 257 to 258 °C.

Regarding `COc1ccc(-c2coc(-c3ccc(C(=O)O)cc3)n2)cc1`, the melting point was in the range of 286 to 287 °C.

`O=C(NC1CCN(Cc2ccccc2)CC1)c1ccc(Nc2c(C(=O)NC3CCN(Cc4ccccc4)CC3)cnc3cc(Cl)ccc23)cc1` showed a melting point of 230 to 232 °C.

For the compound `Cc1oc(-c2cccs2)nc1COc1ccc(Cn2cc(CCC(=O)O)c(-c3ccccc3)c2)cc1`, the melting point is 117 to 118 °C.

`CCCCNC(=O)c1cccc(NC(=O)NS(=O)(=O)c2ccc(C)cc2)c1` came in with a melting point of 125 to 128 °C.

The compound `O=C(O)c1ccc(O)c(Nc2cc(Cl)cc(Cl)c2)c1` showed a melting point of 166 to 167 °C.

The compound `O=C1Cc2cccc(Sc3ccc(Cl)cc3)c2N1` displayed a melting point of 186 to 188 °C.

In the case of `OCc1cccc2cc(Br)ccc12`, the melting point was in the range of 72 to 75 °C.

`COc1cc(C)c(Nc2nnc3n2C(c2ccc(F)cc2)CSC3)cc1OC` (stereo not drawn) gave a melting point of 165 to 166 °C.

`COC(=O)c1ccc(-c2ccc(C(OC)OC)cc2)cc1` gave a melting point of 76 to 77 °C.

On to `OCCOc1cn(-c2ccc(F)cc2)c2ccc(Cl)cc12`, for which the melting point was 118 to 120 °C.

With `Cc1oc(-c2ccccc2)nc1COc1nn(Cc2ccc(Oc3ccccc3)cc2)cc1CO`, the melting point lay in the range of 103 to 104 °C.

Compound `CCCc1c(OCCCCCc2ccc(OC)c(OC)c2)ccc(C(C)=O)c1O` gave a melting point of 72 to 75 °C.

Turning to `CCOC(=O)Cc1nc2cc(OC)c(OC)cc2c(-c2ccc(OC)c(OC)c2)c1C(=O)OCC`, the melting point is 146 to 147 °C.

Compound `O=S1(=O)c2cccc3cccc(c23)N1CCCN1CCC(c2c[nH]c3ccccc23)CC1` had a melting point of 162 °C.

Take `CS(=O)(=O)Cc1cccc(-c2nc(=O)c3ccccc3s2)n1`: the melting point was 230 to 232 °C.

In the case of `O=C(CN1CC(F)(F)Cn2c1nc(-c1ccncn1)cc2=O)c1ccccc1`, the melting point lay within 233 to 234 °C.

Compound `Nc1ccc2c(c1-c1ccccc1)CCC2` registered a melting point of 73 to 75 °C.

For `Cc1cc(C(=O)NCO)ncc1C(c1c(F)ccc(F)c1F)S(=O)(=O)CCC(F)(F)F` (stereo not drawn), the melting point fell in the range of 146 to 148 °C.

Compound `Cc1cc(OCC(=O)OC(C)C)ccc1NC(=O)NC(=O)c1ccc(C#N)cc1` came in with a melting point of 233 to 234 °C.

`OCCCN1c2ccccc2CCc2sccc21` gave a melting point of 73 °C.

`O=C(Nc1ccccn1)Nc1cccc2c1C1CC3(CCN1C2=O)SCCS3` (stereo not drawn) yielded a melting point of 242 °C.

Regarding `O=C1NCC=NN1c1cc(Cl)c(Cc2ccc(C(O)c3ccc(Cl)nc3)cc2)c(Br)c1` (stereo not drawn), the melting point fell in the range of 167 to 169 °C.

Consider `COc1cc(Nc2cc(-c3ccc(F)cc3)nc3ccccc23)ccc1Cl`, for which the melting point was 274 to 276 °C.

As for `CC1(C)CCC(C)(C)c2cc(C(O)CNc3ccc(C(=O)O)c(O)c3)ccc21` (stereo not drawn), the melting point was 165 to 166 °C.

With `COC(=O)N(O)c1cccnc1Oc1ccccc1`, the melting point was found to be 140 °C.

Regarding `O=S1(=O)NCN(CCF)c2ccc(F)cc21`, the melting point was 133 to 134 °C.

In turn, `CCNC(=O)n1nc(Oc2ncc(C(F)(F)F)cc2Cl)c(CC)c1C` gave a melting point of 101 to 102 °C.

`COc1cc(OCc2ccccn2)ccc1/C=C/c1cc(/C=C/c2ccc3c(c2)OCO3)n[nH]1` showed a melting point of 218 to 220 °C.

The compound `N#CC(Cl)CC(Cl)(Cl)C(=O)Oc1ccccc1` (stereo not drawn) showed a melting point of 51.5 to 52.5 °C.

Compound `CCOCn1nccc1C(O)c1ccc(OC)c(Cl)c1Cl` (stereo not drawn) showed a melting point of 155 to 157 °C.

Consider `CC(=O)OCc1nnc(-c2ccc3occ(-c4cccc(OC(F)(F)F)c4)c3c2)o1`, for which the melting point is 93 to 94 °C.

In turn, `COc1ccccc1N1CCN(CCCNC(=O)c2csc3c(=O)cc(C(F)(F)F)oc23)CC1` showed a melting point of 170 to 177 °C.

As to `COC(=O)c1c(OC(C)=O)cc2cc(Br)ccc2c1C`, the melting point was 78 °C.

`COc1ccc2nccc(NC(=O)N3CCN(CC(O)c4cnc5ccccc5n4)CC3)c2n1` (stereo not drawn) displayed a melting point of 133 to 135 °C.

`CC1(C)CCCN(CC2(O)CCNCC2)C1` returned a melting point of 48 to 52 °C.

Regarding `OCc1csc(N2CCSCC2)n1`, the melting point was 83 to 84 °C.

`COc1ccc(NC(=O)c2ccc(Cl)c(Cl)c2)cc1NCc1cccs1` displayed a melting point of 185 to 188 °C.

Regarding `OC(c1ccccc1)C1CCN(CCCN(c2ccccc2)c2ccccc2)CC1` (stereo not drawn), the melting point was in the range of 129 to 130 °C.

On to `c1cnn(-c2ccnc(-n3cccn3)n2)c1`, for which the melting point lay in the range of 152 to 153 °C.

`Cc1nc(-n2cc(-c3ccc(OCc4ccccc4)cc3)nn2)sc1C(=O)NCc1ccccc1` came in with a melting point of 237 to 240 °C.

In the case of `CN1CC(CN)Oc2c(-c3ccccc3C(F)(F)F)cccc21` (stereo not drawn), the melting point turned out to be 90 °C.

In turn, `O=C(/C=C/CC1CCN(Cc2ccccc2)CC1)c1ccc(Nc2ncnc3c2CCC3)cc1` showed a melting point of 184 to 185 °C.

The compound `CNC(=O)Oc1ccc2c(c1)c1c(n2C)C2(CC1)CCN(Cc1ccccc1)CC2` had a melting point of 189 to 190 °C.

Compound `CC(=O)Nc1cc(Cl)ccc1OCC#N` registered a melting point of 146 to 149 °C.

Take `CC(=O)Nc1ccc2c(c1)OCCN2C(C)=O`: the melting point lay within 150 to 154 °C.

`Cc1cc(C)cc(Nc2cccc3c2OC(CN)C3)c1` (stereo not drawn) returned a melting point above 250 °C.

The compound `CN(Cc1cc(C(F)(F)F)cc(C(F)(F)F)c1)C(=O)c1nc(N)ncc1-c1ccccc1` gave a melting point of 182 °C.

For the compound `O=S(=O)(NCCc1ccc(CCO)cc1)c1cccc(C(F)(F)F)c1`, the melting point was in the range of 70 to 72 °C.

On to `O=C(Nc1cccnc1)N1CCN(c2ccnc(-c3cccc(F)c3F)n2)CC1`, for which the melting point was in the range of 208 to 209 °C.

Consider `CCCOc1ccc(F)cc1C(=O)C=CN(C)C`, for which the melting point lay within 43 to 46 °C.

For the compound `CCOc1ccc2[nH]cc(/C(C#N)=C/c3cccnc3)c2c1`, the melting point stood at 196 °C.

On to `O=C1CCC2(CC1)OC(c1ccccc1)c1ccccc12` (stereo not drawn), for which the melting point lay within 143 to 145 °C.

The compound `CCCC12CCC3=C(CCc4cc(OC)ccc43)C1CCC21OCCO1` (stereo not drawn) had a melting point of 119 to 120 °C.

`CCOC(=O)NC(=S)SCc1ccc(Cl)cc1` displayed a melting point of 80 °C.

`CCCCn1nc2c(N)nc3ccccc3c2c1CCCS(=O)(=O)c1ccccc1` yielded a melting point of 206 to 207 °C.
